Reference: US10195156B2, “Compounds and compositions for intracellular delivery of agents” (ModernaTX, Inc., priority 2015, dated 2019)

Key:
[1] = Encapsulation efficiency of RNA (QUANT-IT RIBOGREEN RNA assay); type: physicochemical
Procedure, shortened: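 RiboGreen fluorescence (ex ~480, em ~520 nm) measured after 15 min at 37 °C on samples at ~5 μg/mL in TE, pH 7.5, ± 2% Triton X-100 solution. After blank subtraction, free RNA is given as intact-sample signal divided by disrupted-sample signal.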

[2] = Particle size and polydispersity index of nanoparticle compositions (Zetasizer Nano ZS); type: physicochemical
Procedure, shortened: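 Zetasizer Nano ZS; samples in 1×PBS; read-out: particle size plus polydispersity index.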

hEPO mRNA expression [3] = test: Expression of hEPO in CD-1 mice; type: in vivo; settings: Table 7e; hEPO expression, CD-1 mice, 0.5 mpk
Excerpt: FIG. 12 is a set of graphs illustrating hEPO expression levels in CD-1 mice dosed with compounds of the disclosure, compared to MC3. PBS is used as control. […] In graphs A-C numbers 1-14 refer to compositions containing the following: 1: Compound 73, 2: Compound 80, 3: Compound 70; 4: Compound 81; 5: Compound 69; 6: Compound 82; 7: Compound 83; 8: Compound 62; 9: Compound 84; 10: Compound 85; 11: Compound 86; 12: Compound 87; 13: MC3; 14: PBS.
FIG. 13 is a graph showing hEPO levels (pg/mL) in CD-1 mice up to ˜25 h after administration of a nanoparticle composition containing compounds of the disclosure, compared to a composition containing MC3. Numbers 1-13 refer to compositions containing the following: 1: Compound 73, 2: Compound 80, 3: Compound 70; 4: Compound 81; 5: Compound 69; 6: Compound 82; 7: Compound 83; 8: Compound 62; 9: Compound 84; 10: Compound 85; 11: Compound 86; 12: Compound 87; 13: MC3. […]

hEPO mRNA expression [4] = test: Expression of hEPO in rats after intravenous administration; type: in vivo; settings: hEPO expression in S.D. rats; for AUC/MC3 0.1 mpk / AUC/MC3 1 mpk: relative to MC3
Experimental: PBS (phosphate buffered saline) is used as control.
Formulations were prepared according to Table 5 and included mRNA encoding hEPO.
[…] After the 48 hour time point, livers and spleens were harvested and frozen.

[5] = system: modified luciferase expression; test: Expression of Luc in different organs (liver, lung, spleen, femur) 6 hours after intravenous administration; type: in vivo; settings: Table 3, mice, i.v., 0.5 mpk
Experimental: The efficacy of the nanoparticle compositions presented in Tables 1, 1a, 17-1, 19-1, 20-1 and 21-1 was further evaluated by measuring the expression of modified luciferase in the liver, lung, spleen, and femur upon administration of a given composition. Formulations were administered intravenously to mice (n=3) at a dosage of 0.5 mpk and bioluminescence measured after 6 hours. The standard MC3 formulation and a PBS control were also tested.

[6] = pKa of nanoparticle compositions; type: physicochemical; settings: Table 1; rows without footnote mark
[7] = Lipid levels in liver and spleen 48 hours after administration; type: in vivo, rats; settings: rat liver, 48 h
Experimental: Formulations were administered intravenously to rats (n=3 or 6) at a dosage of 0.2 mg/kg or 0.5 mg/kg (mpk) and hEPO levels measured at 3, 6, and 24 hour time points. After the 48 hour time point, livers and spleens were harvested and frozen.
The amount of lipid in the liver and spleen 48 hours after administration of a nanoparticle composition was also measured. […] In contrast, approximately 60% of doses including MC3 or Compound 22 remained in the liver after 48 hours. Less than 3% of the dose remained in the spleen for each composition tested.

[8] = Lipid clearance: % dose remaining in mouse liver 6 h and 24 h after administration of nanoparticle compositions; type: in vivo, CD-1 mice
Excerpt: In contrast, hEPO expression in rats induced by administration of a nanoparticle composition including a compound according to one of formulae (I), (Ia1)-(Ia6), (Ib), (II), (IIa), (III), and (IIIa) was substantially […] than that measured for MC3. […] Table 7c and 7d show additional protein expressions and clearance data from compositions with various compounds disclosed herein as compared to with MC3.

[9] = system: luciferase (Luc) mRNA expression; test: Expression of Luc induced by sample formulations, whole-body bioluminescence after intravenous administration; type: in vivo; settings: Table 2; mice, i.v., 0.5 mg/kg, 6 hours
Procedure, shortened: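 Read-out is whole-body bioluminescence at 3, 6 and 24 h after a single intravenous dose of 0.5 mg/kg Luc mRNA in nanoparticle formulations. Groups of n=6 mice; PBS and standard MC3 formulation as references.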

[10] = Table 1, rows without footnote mark
[11] = Table 1, rows without footnote mark (lipid:DOPE:cholesterol:PEG-DMG 40:20:38.5:1.5, Luc mRNA; MC3 standard formulation)

| SMILES | EE (%) ([1]; Table 1b) | PDI ([2]; Table 1b) | Size (nm) ([2]; Table 1b) | AUC (p/s*h) CD-1 mice 0.5 mpk (hEPO mRNA expression [3]) | AUC (0.1 mpk) (hEPO mRNA expression [4]) | AUC/MC3 0.1 mpk (hEPO mRNA expression [4]) | AUC (1 mpk) (hEPO mRNA expression [4]) | AUC/MC3 1 mpk (hEPO mRNA expression [4]) | EE (%) [1, 10] | PDI [2, 10] | Size (nm) [2, 11] | Total Flux Liver [5] | Total Flux Spleen [5] | pKa [6] | % dose remainng Rat liver (48 h) [7] | % Dose remaining 6 h CD-1 mice [8] | % Dose remaining 24 h CD-1 mice [8] | % dose remaining Mouse liver (24 h) [8] | Total Flux 6 hours [9] |
| --- | --- | --- | --- | --- | --- | --- | --- | --- | --- | --- | --- | --- | --- | --- | --- | --- | --- | --- | --- |
| CCCCCCCCCN(CCCCCCCCC)CCC1CCN(C(=O)CN(CCCCCCCCC)CCN(CCCCCCCCC)CCCCCCCCC)C1 (centres unmarked) [Compound 69, 2-((2-(Dinonylamino)ethyl)(nonyl)amino)-1-(3-(2-(dinonylamino)ethyl)pyrrolidin-1-yl)ethan-1-one] | 99.31% | 0.24 | 74.4 nm | 2.33E+8 p/s*h | – | – | – | – | – | – | – | – | – | – | – | – | – | – | – |
| CCCCCCCCCN(CCCC(=O)OCCCCC)CCC1CCN(C(=O)CN(CCCCCCCCC)CCN(CCCCCCCCC)CCCCCCCCC)C1 (centres unmarked) [Compound 81, Pentyl 4-((2-(1-(N-(2-(dinonylamino)ethyl)-N-nonylglycyl)pyrrolidin-3-yl)ethyl)(nonyl)amino)butanoate] | 99.27% | 0.17 | 65.3 nm | 1.08E+8 p/s*h | – | – | – | – | – | – | – | – | – | – | – | – | – | – | – |
| CCCCCCCCCN(CCCC(=O)OCCCCC)CCCC1CCN(C(=O)CCN(CCCCCCCCC)CCN(CCCCCCCCC)CCCCCCCCC)CC1 [Compound 84, Pentyl 4-((3-(1-(3-((2-(dinonylamino)ethyl)(nonyl)amino)propanoyl)piperidin-4-yl)propyl)(nonyl)amino)butanoate] | 98.48% | 0.19 | 68.6 nm | 5.10E+7 p/s*h | – | – | – | – | – | – | – | – | – | – | – | – | – | – | – |
| CCCCCCCCCN(CCCC(=O)OCCCCC)CCC(=O)N1CCN(C(=O)CCN(CCCCCCCCC)CCN(CCCCCCCCC)CCCCCCCCC)CC1 [Compound 62, Pentyl 4-((3-(4-(3-((2-(dinonylamino)ethyl)(nonyl)amino)propanoyl)piperazin-1-yl)-3-oxopropyl)(nonyl)amino)butanoate] | 97.73% | 0.18 | 61.7 nm | 3.46E+7 p/s*h | – | – | – | – | – | – | – | – | – | – | – | – | – | – | – |
| CCCCCCCCCN(CCCC(=O)OCCCCC)CCC1CCCN(C(=O)CN(CCCCCCCCC)CCN(CCCCCCCCC)CCCCCCCCC)C1 (centres unmarked) [Compound 80, Pentyl 4-((2-(1-(N-(2-(dinonylamino)ethyl)-N-nonylglycyl)piperidin-3-yl)ethyl)(nonyl)amino)butanoate] | 98.93% | 0.2 | 65.8 nm | 6.24E+7 p/s*h | – | – | – | – | – | – | – | – | – | – | – | – | – | – | – |
| CCCCCCCCCN(CCCCCCCCC)CCC1CCN(C(=O)CN(CCCCCCCCC)CCN(CCCCCCCCC)CCCCCCCCC)CC1 [Compound 49, 2-((2-(Dinonylamino)ethyl)(nonyl)amino)-1-(4-(2-(dinonylamino)ethyl)piperidin-1-yl)ethan-1-one] | – | – | – | – | 5.98E+06 | 3.7 | 1.44E+08 | 1.2 | 98.8% | 0.200 | 95.8 nm | 1.21E+10 | 6.65E+07 | 6.4 | 38.45% | 49% | 40% | 40.3% | 5.67E+10 |
| CCCCCCCCCN(CCCCCCCCC)CCN(CCCCCCCCC)CC(=O)N1CCN(C(=O)CN(CCCCCCCCC)CCCC(=O)OCCCCC)CC1 [Compound 45, Pentyl 4-((2-(4-(N-(2-(dinonylamino)ethyl)-N-nonylglycyl)piperazin-1-yl)-2-oxoethyl)(nonyl)amino)butanoate] | – | – | – | – | 1.45E+06 | 0.90 | 2.00E+08 | 1.7 | 94.9% | 0.200 | 100.2 nm | 7.87E+09 | 1.70E+08 | 6.77 | 8.57% | 33% | 24% | 23.7% | 7.86E+10 |
| CCCCCCCCCN(CCCCCCCCC)CCN(CCCCCCCCC)CC(=O)N1CC2CC1CN2C(=O)CN(CCCCCCCCC)CCCCCCCCC (centres unmarked) [Compound 42, 2-(Dinonylamino)-1-(5-(N-(2-(dinonylamino)ethyl)-N-nonylglycyl)-2,5-diazabicyclo[2.2.1]heptan-2-yl)ethan-1-one] | – | – | – | – | – | – | – | – | 97.1% | 0.190 | 116.4 nm | 5.53E+09 | 2.29E+08 | 6.77 | – | 58% | 53% | – | 4.99E+10 |
| CCCCCCCCCN(CCCCCCCC(=O)OC)CCN(CCCCCCCC(=O)OC)CC(=O)N1CCN(C(=O)CN(CCCCCCCCC)CCCCCCCCC)CC1 [Compound 48, Methyl 8-((2-(4-(dinonylglycyl)piperazin-1-yl)-2-oxoethyl)(2-((8-methoxy-8-oxooctyl)(nonyl)amino)ethyl)amino)octanoate] | – | – | – | – | – | – | – | – | 79.3% | 0.099 | 111.4 nm | 1.04E+07 | 1.50E+07 | 6.99 | – | <1% | <1% | – | 1.05E+08 |
| CCCCCCCCCCCCN(CCCCCCCCCCCC)CCN(CCCCCCCCCCCC)CC(=O)N1CC2CC1CN2C(=O)CN(CCCCCCCCC)CCCCCCCCC (centres unmarked) [Compound 43, 2-((2-(Didodecylamino)ethyl)(dodecyl)amino)-1-(5-(dinonylglycyl)-2,5-diazabicyclo[2.2.1]heptan-2-yl)ethan-1-one] | – | – | – | – | – | – | – | – | 99.1% | 0.220 | 99.0 nm | 2.60E+08 | 4.52E+07 | 6.72 | – | 69% | 64% | – | 4.54E+09 |
| CCCCCCCCCN(CCCCCCCCC)CCC(=O)N1CCN(C(=O)CCN(CCCCCCCCC)CCN(CCCCCCCCC)CCCCCCCCC)CC1 [Compound 52, 3-(Dinonylamino)-1-(4-(3-((2-(dinonylamino)ethyl)(nonyl)amino)propanoyl)piperazin-1-yl)propan-1-one] | – | – | – | – | – | – | – | – | 97.5% | 0.100 | 94.4 nm | 1.18E+10 | 8.74E+08 | 6.77 | – | 46% | 40% | – | 9.85E+10 |
| CCCCCCCCCN(CCCCCCCC(=O)OC)CCN(CCCCCCCCC)CC(=O)N1CCN(C(=O)CN(CCCCCCCCC)CCCCCCCCC)CC1 [Compound 46, Methyl 8-((2-((2-(4-(dinonylglycyl)piperazin-1-yl)-2-oxoethyl)(nonyl)amino)ethyl)(nonyl)amino)octanoate] | – | – | – | – | – | – | – | – | 97.5% | 0.160 | 81.8 nm | 3.84E+08 | 4.35E+07 | 6.77 | – | 1% | <1% | – | 5.26E+09 |
